Measurements taken from article PMC8911181, “A Novel CDK4/6 and PARP Dual Inhibitor ZC-22 Effectively Suppresses Tumor Growth and Improves the Response to Cisplatin Treatment in Breast and Ovarian Cancer” (International Journal of Molecular Sciences, 2022).

Assays:
Test in all cases: Cell viability assay (CCK-8), IC50
Type in all cases: cell-based
[1] = system: MDA-MB-231 cells; settings: Homo sapiens, 6 days, medium replenished every 2 days
Procedure: (§1) Human breast cancer cell lines MDA-MB-231 and SUM-159, and human ovarian cancer cell lines OVCAR5 and SKOV3 were obtained from the American Type Culture Collection (ATCC). MDA-MB-231 cells were cultured in L-15 medium with 10% fetal bovine serum (FBS), incubated at 37 °C in a humidified incubator without additional CO2. SUM-159 cells were maintained in Dulbecco’s modified Eagle’s medium (DMEM) containing 10% FBS, and OVCAR5 and SKOV3 cells were incubated in Roswell Park Memorial Institute (RPMI)-1640 medium with 10% FBS and cultured at 37 °C in a humidified incubator containing 5% CO2.
(§2) Cell viability assay was performed as described before. Briefly, 2500/well of breast or ovarian cancer cells were seeded into a 96-well plate; grown overnight; treated with indicated concentration of Olaparib, LY2835219, ZC22, LP-1, GC-24, or cisplatin alone or together for an indicated amount of time; and then incubated with Cell Counting kit-8 (CCK-8) substrate (Dojindo, Kumamoto, Kyushu Island, Japan) for 1–2 h at 37 °C. Cell viability was calculated by the absorbance at 450 nm measured by the GloMax Explorer (Promega, Madison, WI, USA). Cells without treatment were set as 100%, and medium control (no cells) was set as 0%.
(§3) Figure 1 Synthesis strategy and activity assay of the novel compounds targeting both PARP and CDK4/6. (A) Synthesis strategy of the three novel compounds GC-24, LP-1, and ZC-22. (B) IC50 of GC-24, LP-1, and ZC-22 in breast and ovarian cancer cells. Cells were treated with increasing concentrations of GC-24, LP 1, or ZC-22 for 6 days with replenishment of medium every 2 days. Cell proliferation was analyzed by CCK-8 assays. (C) The reagents and conditions used for the chemical synthesis of ZC-22 in this study: (a) Pd(AcO)2, BINAP, CS2CO3, 1,4-Dioxane, 100 °C, 12 h; (b) CF3COOH, DCM, Room temperature, 6 h; (c) HOBt, EDCI, DIPEA, DMF, Room temperature, 12 h. TEXT PRINTED IN THE PICTURE: (B) LP-1: MDA-MB-231 IC50 (μM): >50; SUM-159 IC50 (μM): 7.780; OVCAR5 IC50 (μM): 10.11; SKOV3 IC50 (μM): 10.16 | (B) GC-24: MDA-MB-231 IC50 (μM): 33.77; SUM-159 IC50 (μM): 17.77; OVCAR5 IC50 (μM): 26.08; SKOV3 IC50 (μM): >50 | (B) ZC-22: MDA-MB-231 IC50 (μM): 3.608; SUM-159 IC50 (μM): 0.435; OVCAR5 IC50 (μM): 0.758; SKOV3 IC50 (μM): 0.542
(§4) Figure 2 ZC-22 suppresses proliferation of breast and ovarian cancer cells. (A) IC50 of ZC-22, Olaparib, and LY2835219 (Abemaciclib) in breast and ovarian cancer cells. Cells were treated with increasing concentrations of ZC-22, Olaparib, or LY2835219 for 6 days with replenishment of medium every 2 days. Cell proliferation was analyzed by CCK-8 assays. (B) Cell proliferation assay of breast and ovarian cancer cells with indicated treatment. MDA-MB-231 cells were treated with 2 μM Olaparib (OLA) or LY2835219 (LY-2) alone or together (OLA + LY-2) or with ZC-22 alone for 48 or 72 h. SUM-159, OVCAR5, and SKOV3 cells were treated with 0.5 μM OLA or LY-2 alone or together or with ZC-22 alone. Cell proliferation assay was analyzed by CCK-8 assays. Values are means ± SD, n = 3. ns, not significant, * p < 0.05, ** p < 0.01 and *** p < 0.001 for comparisons with the DMSO-treated group using an unpaired t-test. TEXT PRINTED IN THE PICTURE: (A) ZC-22: MDA-MB-231 IC50 (μM): 3.608; SUM-159 IC50 (μM): 0.435; OVCAR5 IC50 (μM): 0.758; SKOV3 IC50 (μM): 0.542 | (A) LY2835219: MDA-MB-231 IC50 (μM): 11.28; SUM-159 IC50 (μM): 0.664; OVCAR5 IC50 (μM): 9.791; SKOV3 IC50 (μM): 1.158 | (A) Olaparib: MDA-MB-231 IC50 (μM): 32.13; SUM-159 IC50 (μM): 19.29; OVCAR5 IC50 (μM): 30.51; SKOV3 IC50 (μM): >50

[2] = system: OVCAR5 cells; settings: Homo sapiens, OVCAR-5, 6 days, medium replenished every 2 days
Procedure: as §1, §2, §3, §4

[3] = system: SKOV3 cells; settings: Homo sapiens, SK-OV-3, 6 days, medium replenished every 2 days
Procedure: as §1, §2, §3, §4

[4] = system: SUM-159 cells; settings: Homo sapiens, SUM159, 6 days, medium replenished every 2 days
Procedure: as §1, §2, §3, §4

| SMILES | IC50 [1] [µM] | IC50 [2] [µM] | IC50 [3] [nM] | IC50 [4] [nM] |
| --- | --- | --- | --- | --- |
| CCN1CCN(Cc2ccc(Nc3ncc(F)c(-c4cc(F)c5nc(C)n(C(C)C)c5c4)n3)nc2)CC1 [LY2835219, Abemaciclib, reference compound] | 11.3 | 9.79 | 1160 | 664 |
| Cc1nc2c(F)cc(-c3nc(Nc4ccc(N5CCN(C(=O)c6cc(Cc7n[nH]c(=O)c8ccccc78)ccc6F)CC5)cn4)ncc3F)cc2n1C(C)C [ZC-22, 4-(4-fluoro-3-(4-(6-((5-fluoro-4-(4-fluoro-1-isopropyl-2-methyl-1H-benzo[d]imidazole-6-yl)pyrimidin-2-yl)amino)pyridin-3-yl)piperazine-1-carbonyl)benzyl)phthalazin-1(2H)-one] | 3.61 | 0.758 | 542 | 435 |
